According to the supplement of paper PMC11061612:

What was measured:
Carboplatin = compound: C1CC(C1)(C(=O)[O-])C(=O)[O-].N.N.[Pt+2] [Carboplatin]; settings: max 10 µM
Summary of the method: (§1)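 Cancer cell lines in 1536-well plates (7.5 μl DMEM/F12 or RPMI, 10% FBS) were held 24 hours at 37°C and 5% CO2 and then dosed for 72 hours at a final DMSO of typically 0.2%. Viability was taken from CellTiter-Glo 2.0 luminescence, scaled between blank-well and DMSO-well means. Curves were fitted as two-parameter logistic models with a non-linear mixed effects model, from which the single-agent IC50 was taken.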

AZD5363 = compound: C1CN(CCC1(C(=O)N[C@@H](CCO)C2=CC=C(C=C2)Cl)N)C3=NC=NC4=C3C=CN4 [AZD5363]; settings: max 10 µM
Summary of the method: as §1

AZD1775 = compound: C=CCn1c(=O)c2cnc(Nc3ccc(N4CCN(C)CC4)cc3)nc2n1-c1cccc(C(C)(C)O)n1 [AZD1775]; settings: max 3 µM
Summary of the method: as §1

Trametinib = compound: CC(=O)Nc1cccc(-n2c(=O)n(C3CC3)c(=O)c3c(Nc4ccc(I)cc4F)n(C)c(=O)c(C)c32)c1 [Trametinib]; settings: max 1 µM
Summary of the method: as §1

Paclitaxel = compound: CC(=O)O[C@H]1C(=O)[C@@]2(C)[C@H]([C@H](OC(=O)c3ccccc3)[C@]3(O)C[C@H](OC(=O)[C@H](O)[C@@H](NC(=O)c4ccccc4)c4ccccc4)C(C)=C1C3(C)C)[C@]1(OC(C)=O)CO[C@@H]1C[C@@H]2O [Paclitaxel]; settings: max 3 µM
Summary of the method: as §1

Palbociclib = compound: CC(=O)c1c(C)c2cnc(Nc3ccc(N4CCNCC4)cn3)nc2n(C2CCCC2)c1=O [Palbociclib]; settings: max 10 µM
Summary of the method: as §1

AZD1390 = compound: CC(C)n1c(=O)n(C)c2cnc3cc(F)c(-c4ccc(OCCCN5CCCCC5)nc4)cc3c21 [AZD1390]; settings: max 0.3 µM
Summary of the method: as §1

Venetoclax = compound: CC1(C)CCC(CN2CCN(c3ccc(C(=O)NS(=O)(=O)c4ccc(NCC5CCOCC5)c([N+](=O)[O-])c4)c(Oc4cnc5[nH]ccc5c4)c3)CC2)=C(c2ccc(Cl)cc2)C1 [Venetoclax]; settings: max 1 µM
Summary of the method: as §1

Dasatinib = compound: CC1=C(C(=CC=C1)Cl)NC(=O)C2=CN=C(S2)NC3=CC(=NC(=N3)C)N4CCN(CC4)CCO [Dasatinib]; settings: max 2 µM
Summary of the method: as §1

SG3199 = compound: CC1=CN2[C@@H](C1)C=NC3=CC(=C(C=C3C2=O)OC)OCCCCCOC4=C(C=C5C(=C4)N=C[C@@H]6CC(=CN6C5=O)C)OC [SG3199]; settings: max 0.001 µM
Summary of the method: as §1

AZD2811 = compound: CCN(CCO)CCCOc1ccc2c(Nc3cc(CC(=O)Nc4cccc(F)c4)[nH]n3)ncnc2c1 [AZD2811]; settings: max 1 µM
Summary of the method: as §1

SN-38 = compound: CCc1c2c(nc3ccc(O)cc13)-c1cc3c(c(=O)n1C2)COC(=O)[C@]3(O)CC [SN-38]; settings: max 0.3 µM
Summary of the method: as §1

AZD0156 = compound: CN(C)CCCOc1ccc(-c2ccc3ncc4c(c3c2)n(C2CCOCC2)c(=O)n4C)cn1 [AZD0156]; settings: max 3 µM
Summary of the method: as §1

AZD4320 = compound: CN(CC[C@H](CSC1=CC=CC=C1)NC2=C(C=C(C=C2)S(=O)(=O)NC(=O)C3=CC=C(C=C3)N4CCC(CC4)[C@H](C5=CC=CC=C5C6=CC=C(C=C6)Cl)O)S(=O)(=O)C(F)(F)F)CCO [AZD4320]; settings: max 1 µM
Summary of the method: as §1

Alisertib = compound: COc1cc(Nc2ncc3c(n2)-c2ccc(Cl)cc2C(c2c(F)cccc2OC)=NC3)ccc1C(=O)O [Alisertib]; settings: max 10 µM
Summary of the method: as §1

Etoposide = compound: COc1cc([C@@H]2c3cc4c(cc3[C@@H](O[C@@H]3O[C@@H]5CO[C@@H](C)O[C@H]5[C@H](O)[C@H]3O)[C@H]3COC(=O)[C@H]23)OCO4)cc(OC)c1O [Etoposide]; settings: max 10 µM
Summary of the method: as §1

Gefitinib = compound: COc1cc2ncnc(Nc3ccc(F)c(Cl)c3)c2cc1OCCCN1CCOCC1 [Gefitinib]; settings: max 10 µM
Summary of the method: as §1

Prexasertib = compound: COc1cccc(OCCCN)c1-c1cc(Nc2cnc(C#N)cn2)n[nH]1 [Prexasertib]; settings: max 1 µM
Summary of the method: as §1

Doxorubicin = compound: COc1cccc2c1C(=O)c1c(O)c3c(c(O)c1C2=O)C[C@@](O)(C(=O)CO)C[C@@H]3O[C@H]1C[C@H](N)[C@H](O)[C@H](C)O1 [Doxorubicin]; settings: max 1 µM
Summary of the method: as §1

AZD5153 = compound: COc1nnc2ccc(N3CCC(c4ccc(OCCN5CCN(C)C(=O)[C@H]5C)cc4)CC3)nn12 [AZD5153]; settings: max 1 µM
Summary of the method: as §1

Lapatinib = compound: CS(=O)(=O)CCNCc1ccc(-c2ccc3ncnc(Nc4ccc(OCc5cccc(F)c5)c(Cl)c4)c3c2)o1 [Lapatinib]; settings: max 10 µM
Summary of the method: as §1

AZD8186 = compound: C[C@@H](Nc1cc(F)cc(F)c1)c1cc(C(=O)N(C)C)cc2c(=O)cc(N3CCOCC3)oc12 [AZD8186]; settings: max 10 µM
Summary of the method: as §1

Crizotinib = compound: C[C@@H](Oc1cc(-c2cnn(C3CCNCC3)c2)cnc1N)c1c(Cl)ccc(F)c1Cl [Crizotinib]; settings: max 10 µM
Summary of the method: as §1

Savolitinib = compound: C[C@@H](c1ccc2nccn2c1)n1nnc2ncc(-c3cnn(C)c3)nc21 [Savolitinib]; settings: max 1 µM
Summary of the method: as §1

AZD6738 = compound: C[C@@H]1COCCN1C2=NC(=NC(=C2)C3(CC3)[S@](=N)(=O)C)C4=C5C=CNC5=NC=C4 [AZD6738]; settings: max 10 µM
Summary of the method: as §1

AZD5991 = compound: Cc1c2c(nn1C)CSCc1cc(n(C)n1)CSc1cc(c3ccccc3c1)OCCCc1c(C(=O)O)n(C)c3c-2c(Cl)ccc13 [AZD5991]; settings: max 1 µM
Summary of the method: as §1

AZD7648 = compound: Cc1cc2ncnn2cc1Nc1ncc2c(n1)n(C1CCOCC1)c(=O)n2C [AZD7648]; settings: max 10 µM
Summary of the method: as §1

Taselisib = compound: Cc1nc(-c2cn3c(n2)-c2ccc(-c4cnn(C(C)(C)C(N)=O)c4)cc2OCC3)n(C(C)C)n1 [Taselisib]; settings: max 10 µM
Summary of the method: as §1

Selumetinib = compound: Cn1cnc2c(F)c(Nc3ccc(Br)cc3Cl)c(C(=O)NOCCO)cc21 [Selumetinib]; settings: max 10 µM
Summary of the method: as §1

SRA737 = compound: N#Cc1cnc(Nc2cc(NC[C@H]3CNCCO3)c(C(F)(F)F)cn2)cn1 [SRA737]; settings: max 10 µM
Summary of the method: as §1

MK-2206 = compound: NC1(c2ccc(-c3nc4ccn5c(=O)[nH]nc5c4cc3-c3ccccc3)cc2)CCC1 [MK-2206]; settings: max 10 µM
Summary of the method: as §1

Gemcitabine = compound: Nc1ccn([C@@H]2O[C@H](CO)[C@@H](O)C2(F)F)c(=O)n1 [Gemcitabine]; settings: max 0.3 µM
Summary of the method: as §1

[1] = compound: O=C(Nc1ccc2[nH]nc(-c3ccncc3)c2c1)[C@@H]1CCN(CC(=O)N2CCN(c3ccc(-c4ncccn4)cc3)CC2)C1; settings: max 5 µM
Summary of the method: as §1

Olaparib = compound: O=C(c1cc(Cc2n[nH]c(=O)c3ccccc23)ccc1F)N1CCN(C(=O)C2CC2)CC1 [Olaparib]; settings: max 10 µM
Summary of the method: as §1

5-Fluorouracil = compound: O=c1[nH]cc(F)c(=O)[nH]1 [5-Fluorouracil]; settings: max 20 µM
Summary of the method: as §1

Cell Line | IC50, cell viability 72 h (Carboplatin) [nM] | IC50, cell viability 72 h (AZD5363) [nM] | IC50, cell viability 72 h (AZD1775) [nM] | IC50, cell viability 72 h (Trametinib) [nM] | IC50, cell viability 72 h (Paclitaxel) [nM] | IC50, cell viability 72 h (Palbociclib) [nM] | IC50, cell viability 72 h (AZD1390) [nM] | IC50, cell viability 72 h (Venetoclax) [nM] | IC50, cell viability 72 h (Dasatinib) [nM] | IC50, cell viability 72 h (SG3199) [nM] | IC50, cell viability 72 h (AZD2811) [nM] | IC50, cell viability 72 h (SN-38) [nM] | IC50, cell viability 72 h (AZD0156) [nM] | IC50, cell viability 72 h (AZD4320) [nM] | IC50, cell viability 72 h (Alisertib) [nM] | IC50, cell viability 72 h (Etoposide) [nM] | IC50, cell viability 72 h (Gefitinib) [nM] | IC50, cell viability 72 h (Prexasertib) [nM] | IC50, cell viability 72 h (Doxorubicin) [nM] | IC50, cell viability 72 h (AZD5153) [nM] | IC50, cell viability 72 h (Lapatinib) [nM] | IC50, cell viability 72 h (AZD8186) [nM] | IC50, cell viability 72 h (Crizotinib) [nM] | IC50, cell viability 72 h (Savolitinib) [nM] | IC50, cell viability 72 h (AZD6738) [nM] | IC50, cell viability 72 h (AZD5991) [nM] | IC50, cell viability 72 h (AZD7648) [nM] | IC50, cell viability 72 h (Taselisib) [nM] | IC50, cell viability 72 h (Selumetinib) [nM] | IC50, cell viability 72 h (SRA737) [nM] | IC50, cell viability 72 h (MK-2206) [nM] | IC50, cell viability 72 h (Gemcitabine) [nM] | IC50, cell viability 72 h [1] [nM] | IC50, cell viability 72 h (Olaparib) [nM] | IC50, cell viability 72 h (5-Fluorouracil) [nM]
SNU-449 (Hepatocellular Carcinoma) | > 10000 | > 10000 | > 3000 | > 1000 | > 3000 | > 10000 | > 300 | > 1000 | 1260 | > 1 | > 1000 | > 300 | > 3000 | > 1000 | > 10000 | > 10000 | > 10000 | > 1000 | > 1000 | > 1000 | > 10000 | > 10000 | > 10000 | > 1000 | > 10000 | > 1000 | > 10000 | > 10000 | > 10000 | > 10000 | > 10000 | > 300 | > 5000 | > 10000 | > 20000
MPP-89 (Mesothelioma) | > 10000 | > 10000 | 1550 | > 1000 | 842 | > 10000 | > 300 | > 1000 | 558 | > 1 | > 1000 | 172 | > 3000 | > 1000 | 9370 | > 10000 | > 10000 | 67.2 | > 1000 | > 1000 | > 10000 | > 10000 | > 10000 | > 1000 | > 10000 | > 1000 | > 10000 | > 10000 | > 10000 | > 10000 | > 10000 | > 300 | > 5000 | > 10000 | > 20000
LNZTA3WT4 (Low Grade Glioma) | > 10000 | > 10000 | 624 | > 1000 | 141 | > 10000 | > 300 | > 1000 | > 2000 | > 1 | > 1000 | 269 | > 3000 | > 1000 | > 10000 | > 10000 | > 10000 | 18.7 | > 1000 | > 1000 | > 10000 | > 10000 | > 10000 | > 1000 | 4500 | > 1000 | > 10000 | > 10000 | > 10000 | 4630 | > 10000 | 99.7 | > 5000 | > 10000 | > 20000
NCI-H524 (Small Cell Lung Carcinoma) | > 10000 | > 10000 | 974 | > 1000 | 3.26 | > 10000 | > 300 | > 1000 | > 2000 | > 1 | 22.3 | 133 | > 3000 | 415 | 30.5 | > 10000 | > 10000 | 23.6 | > 1000 | 278 | > 10000 | > 10000 | 2550 | > 1000 | 4370 | > 1000 | > 10000 | 8080 | > 10000 | > 10000 | > 10000 | 189 | > 5000 | > 10000 | > 20000
